Columns and labels:
[1] = tested on: BT474 (breast cancer cell line); assay: In vitro cytotoxicity by MTT assay, BT474; assay type: cell-based; details: Homo sapiens, 72 h; for cytotoxicity at 0.005 µM: BT-474, 0.005 μM; for cytotoxicity at 0.005 µM / cytotoxicity at 0.015 µM / cytotoxicity at 0.045 µM / cytotoxicity at 0.13 µM / cytotoxicity at 0.41 µM / cytotoxicity at 1.23 µM / cytotoxicity at 3.7 µM / cytotoxicity at 11.11 µM / cytotoxicity at 33.33 µM / cytotoxicity at 100 µM: read-out: % cytotoxicity (100 − % cell survival) of BT474 cell line; for cytotoxicity at 0.015 µM: BT-474, 0.015 μM; for cytotoxicity at 0.045 µM: BT-474, 0.045 μM; for cytotoxicity at 0.13 µM: BT-474, 0.13 μM; for cytotoxicity at 0.41 µM: BT-474, 0.41 μM; for cytotoxicity at 1.23 µM: BT-474, 1.23 μM; for cytotoxicity at 3.7 µM: BT-474, 3.7 μM; for cytotoxicity at 11.11 µM: BT-474, 11.11 μM; for cytotoxicity at 33.33 µM: BT-474, 33.33 μM; for cytotoxicity at 100 µM: BT-474, 100 μM
Procedure: (§1) The cancer cell line cultures of HEK 293 ([…]), BT474 (breast cancer cell line) and NCI-H226 (lung cancer) were obtained from Pasteur Institute of India, Coonoor, India, and were cultured in RPMI-1640 and 10 % heat-[…] New born calf serum with antibiotics [penicillin ([…]), streptomycin (100 μg/mL) and amphotericin B (25 μg/mL)]. The cells were maintained at 37 °C in a humidified atmosphere with 5 % CO2 and were subcultured twice a week.
(§2) The monolayer cell culture (100 μL) was trypsinized, and the cell count was adjusted to […] using medium containing 10 % new born calf serum. To each well of the 96-well microtitre plate, the diluted cell suspension (approximately 10,000 cells) (0.1 mL) was added and kept for 24 h in incubator at 37 °C in 5 % CO2 atmosphere for cell monolayer formation. After 24 h, when a partial monolayer was formed at the bottom of the well, the supernatant was flicked off, the monolayer was washed once, and different drugs, i.e. synthesized compounds (100 μL), were added to the cells in microtitre plates. The plates were then incubated at 37 °C for 3 days in 5 % CO2 atmosphere, and microscopic examination was carried out and observations recorded every 24 h. After 72 h, the sample solution in the wells was flicked off; MTT dye ([…]) was added to each well; plates were gently shaken and incubated for 4 h at 37 °C in 5 % CO2 incubator. The supernatant was removed and propanol (50 μL) was added; the plates were gently shaken to solubilize the formed formazan. The absorbance was measured using a microplate reader at a wavelength of 490 nm (Edmondson et al., [1988]; Prasad et al., [2005]; Chiruvella et al., [2008]; Chang et al., [2007]).

[2] = In vitro cytotoxicity by MTT assay, HEK 293; assay type: cell-based, human; details: human, HEK 293 cells, read-out: % cytotoxicity (100 − % cell survival) of HEK 293 cell line
Procedure: as §1, §2

[3] = In vitro cytotoxicity by MTT assay, NCI-H226; assay type: cell-based; details: human, NCI-H226 lung cancer cells, 0.015 μM, read-out: % Cytotoxicity (100 − % cell survival) of NCI-H226 cell line
Procedure: as §1, §2

[4] = tested on: NCI-H226 (lung cancer cell line); assay: In vitro cytotoxicity by MTT assay, NCI-H226; assay type: cell-based; details: Homo sapiens, 72 h, read-out: % Cytotoxicity (100 − % cell survival) of NCI-H226 cell line; for cytotoxicity at 0.005 µM: NCI-H226, 0.005 μM; for cytotoxicity at 0.045 µM: NCI-H226, 0.045 μM; for cytotoxicity at 0.13 µM: NCI-H226, 0.13 μM; for cytotoxicity at 0.41 µM: NCI-H226, 0.41 μM; for cytotoxicity at 1.23 µM: NCI-H226, 1.23 μM; for cytotoxicity at 3.7 µM: NCI-H226, 3.7 μM; for cytotoxicity at 11.11 µM: NCI-H226, 11.11 μM; for cytotoxicity at 33.33 µM: NCI-H226, 33.33 μM; for cytotoxicity at 100 µM: NCI-H226, 100 μM
Procedure: as §1, §2

SMILES | cytotoxicity at 0.005 µM [1] | cytotoxicity at 0.015 µM [1] | cytotoxicity at 0.045 µM [1] | cytotoxicity at 0.13 µM [1] | cytotoxicity at 0.41 µM [1] | cytotoxicity at 1.23 µM [1] | cytotoxicity at 3.7 µM [1] | cytotoxicity at 11.11 µM [1] | cytotoxicity at 33.33 µM [1] | cytotoxicity at 100 µM [1] | cytotoxicity at 72 h, 0.005 µM [2] | cytotoxicity at 72 h, 0.015 µM [2] | cytotoxicity at 72 h, 0.045 µM [2] | cytotoxicity at 72 h, 0.13 µM [2] | cytotoxicity at 72 h, 0.41 µM [2] | cytotoxicity at 72 h, 1.23 µM [2] | cytotoxicity at 72 h, 3.7 µM [2] | cytotoxicity at 72 h, 11.11 µM [2] | cytotoxicity at 72 h, 33.33 µM [2] | cytotoxicity at 72 h, 100 µM [2] | other results
Nc1nnc(S(=O)(=O)NC(=O)c2cccc([N+](=O)[O-])c2)s1 [Compound 4f] | 37.6% | 39% | 41.3% | 43.8% | 45.3% | 48.5% | 50.1% | 52.4% | 55.3% | 59.3% | 24.3% | 26.4% | 28.1% | 28.4% | 28.9% | 29.2% | 30% | 30.7% | 31.2% | 32% | CC50 ([1]; BT-474, BT474, concentration at which 50 % of the cells are dead, read-out: CTC50 (cytotoxicity concentration)): 1.56 µM; cytotoxicity at 72 h, 0.015 µM [3]: 38.6%; cytotoxicity at 0.005 µM [4]: 37.2%; cytotoxicity at 0.045 µM [4]: 39.7%; cytotoxicity at 0.13 µM [4]: 41.6%; cytotoxicity at 0.41 µM [4]: 42.9%; cytotoxicity at 1.23 µM [4]: 45.8%; cytotoxicity at 3.7 µM [4]: 46.5%; cytotoxicity at 11.11 µM [4]: 48.3%; cytotoxicity at 33.33 µM [4]: 50.1%; cytotoxicity at 100 µM [4]: 52.9%
NS(=O)(=O)c1ccc(S(=O)(=O)Nc2cccc3c(Cl)c[nH]c23)cc1 [ISL, indisulam, reference compound] | 42.2% | 45% | 46.4% | 49% | 50.8% | 52.9% | 54.7% | 62.5% | 66.1% | 73.5% | 42.3% | 46.9% | 48.6% | 50.1% | 51.1% | 52.2% | 55.4% | 57.8% | 61.2% | 69.4% | cytotoxicity at 72 h, 0.015 µM [3]: 28.4%; cytotoxicity at 0.005 µM [4]: 26.4%; cytotoxicity at 0.045 µM [4]: 30.2%; cytotoxicity at 0.13 µM [4]: 31.1%; cytotoxicity at 0.41 µM [4]: 33%; cytotoxicity at 1.23 µM [4]: 34.1%; cytotoxicity at 3.7 µM [4]: 36.5%; cytotoxicity at 11.11 µM [4]: 38.6%; cytotoxicity at 33.33 µM [4]: 44.7%; cytotoxicity at 100 µM [4]: 59.3%
Nc1ccc(C(=O)NS(=O)(=O)c2nnc(NS(=O)(=O)c3ccc(N)cc3)s2)cc1 [Compound 7c] | 18.8% | 19.4% | 19.8% | 20.1% | 21% | 22.8% | 24.2% | 25.7% | 26.4% | 27.9% | 36.5% | 38.2% | 40.6% | 42.7% | 43.4% | 45.3% | 47.1% | 49.1% | 49.2% | 49.9% | cytotoxicity at 72 h, 0.015 µM [3]: 34%; cytotoxicity at 0.005 µM [4]: 33.2%; cytotoxicity at 0.045 µM [4]: 34.8%; cytotoxicity at 0.13 µM [4]: 36.6%; cytotoxicity at 0.41 µM [4]: 37.8%; cytotoxicity at 1.23 µM [4]: 38%; cytotoxicity at 3.7 µM [4]: 38.2%; cytotoxicity at 11.11 µM [4]: 38.6%; cytotoxicity at 33.33 µM [4]: 38.9%; cytotoxicity at 100 µM [4]: 40.3%
Nc1nnc(S(=O)(=O)NC(=O)c2ccccc2N)s1 [Compound 4b] | 16.2% | 16.6% | 17.4% | 18% | 18.1% | 19.9% | 20.5% | 22.2% | 23.3% | 26.7% | 41.5% | 47% | 50.4% | 53.6% | 57.6% | 58.1% | 59.7% | 62.3% | 63.1% | 65.4% | cytotoxicity at 72 h, 0.015 µM [3]: 32.9%; cytotoxicity at 0.005 µM [4]: 32.1%; cytotoxicity at 0.045 µM [4]: 33.5%; cytotoxicity at 0.13 µM [4]: 34%; cytotoxicity at 0.41 µM [4]: 34.7%; cytotoxicity at 1.23 µM [4]: 35.1%; cytotoxicity at 3.7 µM [4]: 36%; cytotoxicity at 11.11 µM [4]: 36.3%; cytotoxicity at 33.33 µM [4]: 37.2%; cytotoxicity at 100 µM [4]: 39.5%
CC(=O)Nc1ccc(S(=O)(=O)Nc2nnc(S(=O)(=O)NC(=O)c3ccc(N)cc3)s2)cc1 [Compound 6c] | 33.1% | 33.3% | 34.1% | 35% | 35.4% | 36.7% | 37.1% | 37.9% | 38.2% | 39.4% | 30.5% | 32% | 32.9% | 33.6% | 34.8% | 35.7% | 36.6% | 37.8% | 38.2% | 38.8% | cytotoxicity at 72 h, 0.015 µM [3]: 32.8%; cytotoxicity at 0.005 µM [4]: 30.4%; cytotoxicity at 0.045 µM [4]: 33.6%; cytotoxicity at 0.13 µM [4]: 34.1%; cytotoxicity at 0.41 µM [4]: 34.8%; cytotoxicity at 1.23 µM [4]: 34.9%; cytotoxicity at 3.7 µM [4]: 35.1%; cytotoxicity at 11.11 µM [4]: 36.5%; cytotoxicity at 33.33 µM [4]: 38.3%; cytotoxicity at 100 µM [4]: 39%

From paper PMC3973950, “Synthesis of 5-arylidine amino-1,3,4-thiadiazol-2-[(N-substituted benzyol)]sulphonamides endowed with potent antioxidants and anticancer activity induces growth inhibition in HEK293, BT474 and NCI-H226 cells” (Medicinal Chemistry Research, 2013)
